Source: patent US10414769B2, “5,8-dimethyl-9-phenyl-5,8-dihydro-6H-pyrazolo[3,4-h]quinazolin-2-yl)-(1H-pyrazol-3-yl)-amines as IGF-1R/IR inhibitors” (Boehringer Ingelheim International GmbH, priority 2015, dated 2019)

Legend:
GSK3B (GSK3 beta) = target: T1, GSK3B (GSK3 beta) (Homo sapiens, UniProt P49841); test: Z'-LYTE kinase selectivity assay GSK3B; assay type: biochemical
T1 construct: purchased Life Technologies PV 3365
From the text: In order to compare the kinase selectivity of compounds (I) according to the invention with known prior art compounds the commercially provided SelectScreen® Kinase Profiling Service (Z′-LYTE®) was used (Life Technologies GmbH, Darmstadt, Germany) to investigate the ability of the compounds to inhibit a number of different, representatively selected human kinases. Further details regarding this service are available on the Life Technologies website at
The Z′-LYTE® biochemical assay employs a fluorescence-based, coupled-enzyme format and is based on the differential sensitivity of phosphorylated and non-phosphorylated peptides to proteolytic cleavage. The peptide substrate is labeled with two fluorophores—one at each end—that make up a FRET pair.
In the primary reaction, the kinase transfers the gamma-phosphate of ATP to a single tyrosine, serine or threonine residue in a synthetic FRET-peptide. In the secondary reaction, a site-specific protease recognizes and cleaves non-phosphorylated FRET-peptides. Phosphorylation of FRET-peptides suppresses cleavage by the Development Reagent. Cleavage disrupts FRET between the donor (i.e., coumarin) and acceptor (i.e., fluorescein) fluorophores on the FRET-peptide, whereas uncleaved, phosphorylated FRET-peptides maintain FRET. A ratiometric method, which calculates the ratio (the Emission Ratio) of donor emission to acceptor emission after excitation of the donor fluorophore at 400 nm, is used to quantitate reaction progress, as shown in the equation below.
The Test Compounds are screened at 1 μM.
The 2×GSK3B (GSK3 beta) (# PV 3365)/Ser/Thr 09 (Z′-LYTE® Kinase Assay Kit—Ser/Thr 9 Peptide, # PV 3324) mixture is prepared in 50 mM HEPES pH 7.5, 0.01% BRIJ-35, 10 mM MgCl2, 1 mM EGTA. The final 10 μL Kinase Reaction consists of 0.17-0.88 ng GSK3B (GSK3 beta) and 2 μM Ser/Thr 09 in 50 mM HEPES pH 7.5, 0.01% BRIJ-35, 10 mM MgCl2, 1 mM EGTA. After the 1 hour Kinase Reaction incubation, 5 μL of a 1:512 dilution of Development Reagent A is added.

human IGF-1R = target: T2, human IGF-1R (Homo sapiens, UniProt P08069); test: Insulin-like growth factor-1 receptor (IGF-1R)-kinase assay (DELFIA); assay type: biochemical; conditions: inhibition of IGF-1R-kinase activity
T2 construct: human IGF-1R (amino acids 964-1370) is expressed as a fusion protein; made in house; host or cells: High Five insect cells (Invitrogen)
Description: Insulin-Like Growth Factor-1 Receptor (IGF-1R)-Kinase Assay
The kinase activity is measured by DELFIA® assay (dissociation-enhanced lanthanide fluorescence immunoassay, Perkin Elmer). The cytoplasmic kinase domain of human IGF-1R (amino acids 964-1370) is expressed as a fusion protein with a glutathione-S-transferase tag (IGF-1R-GST) in High Five™ Cells (Invitrogen). Enzyme activity is measured in the presence of substances and a control substance. Poly-glutamate-tyrosine peptide (pEY, Sigma Aldrich) and biotinylated pEY (bio-pEY) are used as reaction substrates.
10 μL of substance in 25% DMSO are mixed with 30 μL of IGF-1R-GST solution (67 mM HEPES pH 7.4, 15 μg/mL pEY, 1.7 μg/mL bio-pEY, 13.3 mM MgCl2, 3.3 mM dithiothreitol, 0.0033% Brij 35, 2 ng IGF-1R-GST) in 96-well plates. The reactions are started with 10 μL of a 750 μM ATP solution. After 40 min at RT the reactions are stopped with 50 μL of stop solution (250 mM EDTA, 20 mM HEPES pH 7.4). 90 μL from each reaction are transferred onto streptavidin-coated 96-well plates. After 120 min incubation at RT the plates are washed three times with 200 μL phosphate-buffered saline (PBS) per well. The plates are incubated for 60 min with 100 μL of europium-coupled antibody against phospho-tyrosine (diluted 1/2000 in Perkin Elmer DELFIA assay buffer) per well. The plates are washed three times with 200 μL per well of DELFIA washing buffer (Perkin Elmer). 100 μL DELFIA Enhancement Solution (Perkin Elmer) is added to each well, and the plates are incubated for 10 min. The fluorescence signal is measured with a Wallac Victor TRF Reader. IC50 values for the inhibition of the IGF-1R-kinase activity are calculated using the programme GraphPad (Version 3.0).

[1] = system: HCT 116 (colorectal carcinoma) cells; test: Cell proliferation assay HCT 116 (Alamar Blue); assay type: cell-based; conditions: Homo sapiens; anti-proliferative effect, HCT 116 cells (negative control line), 72 h
Description: (§1) Cell Proliferation Assays
(§2) Compounds were tested for their anti-proliferative effects in the TC-71 (EWING'S sarcoma) and HCT 116 (colorectal carcinoma) cancer cell lines in vitro. Published scientific data has described that interference with the IGF-1R signaling pathway reduces the proliferation of TC-71 cells (Manara et al, 2007). Therefore TC-71 cells served as a positive control cell line for monitoring the activity of compounds against IGF-1R-mediated cell proliferation. […] Therefore the HCT 116 cell line served as a negative control.
(§3) 2000 TC-71 cells or 1000 HCT 116 cells were seeded per well in 180 μL IMDM+10% foetal calf serum (FCS)+penicillin/streptomycin into 96-well microtitre plates. The plates were placed in a cell culture incubator (37° C. in a humidified atmosphere of […]/5% CO2) overnight. The following day, serial dilutions of compounds, prepared in duplicates, were transferred onto the cell layers (controls without compound). The cells were cultivated for a further 72 h in the cell culture incubator. 20 μL of Alamar Blue™ (Serotec Ltd, Dusseldorf, Germany) was added to each well and the plates incubated for 7 h in the cell culture incubator. Fluorescence (extinction wavelength of 544 nm and emission at 590 nm) was then measured and the normalized data fitted by iterative calculation with a sigmoidal curve analysis program (Graph Pad Prism) with a variable Hill slope to determine the EC50 values.

[2] = system: TC-71 (EWING'S sarcoma) cells; test: Cell proliferation assay TC-71 (Alamar Blue); assay type: cell-based; conditions: anti-proliferative effect, TC-71 cells, 72 h; read-out: TC71 EC50
Description: as §1, §2, §3

T2 sequence (P08069 964-1367 limits assumed): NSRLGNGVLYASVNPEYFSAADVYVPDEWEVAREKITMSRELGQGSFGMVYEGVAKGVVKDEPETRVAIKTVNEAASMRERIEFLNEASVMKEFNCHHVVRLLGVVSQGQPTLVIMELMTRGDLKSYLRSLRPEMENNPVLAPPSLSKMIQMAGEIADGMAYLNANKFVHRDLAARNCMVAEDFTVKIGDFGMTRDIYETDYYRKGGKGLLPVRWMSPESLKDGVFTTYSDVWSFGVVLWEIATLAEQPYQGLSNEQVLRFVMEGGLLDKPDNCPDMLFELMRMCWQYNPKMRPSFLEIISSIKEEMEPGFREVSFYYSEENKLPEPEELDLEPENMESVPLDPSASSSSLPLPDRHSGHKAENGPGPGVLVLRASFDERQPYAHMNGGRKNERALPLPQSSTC
T1 sequence (P49841 whole entry): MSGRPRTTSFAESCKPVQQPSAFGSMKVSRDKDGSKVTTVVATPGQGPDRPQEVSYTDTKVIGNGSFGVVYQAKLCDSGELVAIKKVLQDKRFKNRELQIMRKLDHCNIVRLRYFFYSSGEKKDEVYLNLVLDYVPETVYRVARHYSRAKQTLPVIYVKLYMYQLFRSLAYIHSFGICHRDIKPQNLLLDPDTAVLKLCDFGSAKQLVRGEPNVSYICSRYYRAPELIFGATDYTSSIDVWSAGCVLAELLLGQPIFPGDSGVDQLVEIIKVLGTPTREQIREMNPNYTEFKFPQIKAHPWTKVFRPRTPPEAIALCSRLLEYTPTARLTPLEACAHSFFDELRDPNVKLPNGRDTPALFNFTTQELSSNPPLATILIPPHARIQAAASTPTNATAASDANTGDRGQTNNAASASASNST

Compound	inhibition at 1 µM (GSK3B (GSK3 beta)) [%]	IC50 (human IGF-1R) [nM]	EC50 [1] [nM]	EC50 [2] [nM]
C[C@@H]1Cc2nn(C)c(-c3ccccc3)c2-c2nc(Nc3ccn(CCN4CCN(C)CC4)n3)ncc21 [Compound I-1]	14	0.9	> 2500	2.62
C[C@@H]1Cc2nn(C)c(-c3ccccc3)c2-c2nc(Nc3ccn(CCN4CCN(CC(=O)OC5CCOCC5)CC4)n3)ncc21 [Compound I-8]	14	2.8	> 2500	5.98
C[C@@H]1Cc2nn(C)c(-c3ccccc3)c2-c2nc(Nc3ccn(CCN4CCN(CC(C)(C)O)CC4)n3)ncc21 [Compound I-3]	9	1.9	2000	2.67
CC(O)CN1CCN(CCn2ccc(Nc3ncc4c(n3)-c3c(nn(C)c3-c3ccccc3)C[C@H]4C)n2)CC1 (stereo partly shown) [Compound I-7]	10	1	1840	2.17
C[C@@H]1Cc2nn(C)c(-c3ccccc3)c2-c2nc(Nc3ccn(CCN4CCOCC4)n3)ncc21 [Compound I-2]	10	1.3	> 2500	2.35
C[C@@H]1Cc2nn(C)c(-c3ccccc3)c2-c2nc(Nc3ccn(CCN4CCN(CC5CCCO5)CC4)n3)ncc21 (stereo partly shown) [Compound I-9]	9	1.2	> 2500	5.43
COCCN1CCN(CCn2ccc(Nc3ncc4c(n3)-c3c(nn(C)c3-c3ccccc3)C[C@H]4C)n2)CC1 [Compound I-11]	8	0.9	> 2500	3.74
